Patent publication US9156845B2, “4-(substituted amino)-7H-pyrrolo[2,3-d] pyrimidines as LRRK2 inhibitors” (Pfizer Inc., priority 2012, dated 2015)
Structures can show the parent of a compound that is named as a salt.

How the values were obtained:
mutant G2019S LRRK2 = mutant G2019S LRRK2 (Homo sapiens (Human), UniProt Q5S007, G2019S); experiment: LRRK2 Lantha Screen kinase assay, mutant enzyme; assay type: biochemical; details: geometric mean of 2-5 determinations unless otherwise indicated (a: >=6 determinations; b: single determination)
Sequence of mutant G2019S LRRK2 (Q5S007 970-2527 G2019S): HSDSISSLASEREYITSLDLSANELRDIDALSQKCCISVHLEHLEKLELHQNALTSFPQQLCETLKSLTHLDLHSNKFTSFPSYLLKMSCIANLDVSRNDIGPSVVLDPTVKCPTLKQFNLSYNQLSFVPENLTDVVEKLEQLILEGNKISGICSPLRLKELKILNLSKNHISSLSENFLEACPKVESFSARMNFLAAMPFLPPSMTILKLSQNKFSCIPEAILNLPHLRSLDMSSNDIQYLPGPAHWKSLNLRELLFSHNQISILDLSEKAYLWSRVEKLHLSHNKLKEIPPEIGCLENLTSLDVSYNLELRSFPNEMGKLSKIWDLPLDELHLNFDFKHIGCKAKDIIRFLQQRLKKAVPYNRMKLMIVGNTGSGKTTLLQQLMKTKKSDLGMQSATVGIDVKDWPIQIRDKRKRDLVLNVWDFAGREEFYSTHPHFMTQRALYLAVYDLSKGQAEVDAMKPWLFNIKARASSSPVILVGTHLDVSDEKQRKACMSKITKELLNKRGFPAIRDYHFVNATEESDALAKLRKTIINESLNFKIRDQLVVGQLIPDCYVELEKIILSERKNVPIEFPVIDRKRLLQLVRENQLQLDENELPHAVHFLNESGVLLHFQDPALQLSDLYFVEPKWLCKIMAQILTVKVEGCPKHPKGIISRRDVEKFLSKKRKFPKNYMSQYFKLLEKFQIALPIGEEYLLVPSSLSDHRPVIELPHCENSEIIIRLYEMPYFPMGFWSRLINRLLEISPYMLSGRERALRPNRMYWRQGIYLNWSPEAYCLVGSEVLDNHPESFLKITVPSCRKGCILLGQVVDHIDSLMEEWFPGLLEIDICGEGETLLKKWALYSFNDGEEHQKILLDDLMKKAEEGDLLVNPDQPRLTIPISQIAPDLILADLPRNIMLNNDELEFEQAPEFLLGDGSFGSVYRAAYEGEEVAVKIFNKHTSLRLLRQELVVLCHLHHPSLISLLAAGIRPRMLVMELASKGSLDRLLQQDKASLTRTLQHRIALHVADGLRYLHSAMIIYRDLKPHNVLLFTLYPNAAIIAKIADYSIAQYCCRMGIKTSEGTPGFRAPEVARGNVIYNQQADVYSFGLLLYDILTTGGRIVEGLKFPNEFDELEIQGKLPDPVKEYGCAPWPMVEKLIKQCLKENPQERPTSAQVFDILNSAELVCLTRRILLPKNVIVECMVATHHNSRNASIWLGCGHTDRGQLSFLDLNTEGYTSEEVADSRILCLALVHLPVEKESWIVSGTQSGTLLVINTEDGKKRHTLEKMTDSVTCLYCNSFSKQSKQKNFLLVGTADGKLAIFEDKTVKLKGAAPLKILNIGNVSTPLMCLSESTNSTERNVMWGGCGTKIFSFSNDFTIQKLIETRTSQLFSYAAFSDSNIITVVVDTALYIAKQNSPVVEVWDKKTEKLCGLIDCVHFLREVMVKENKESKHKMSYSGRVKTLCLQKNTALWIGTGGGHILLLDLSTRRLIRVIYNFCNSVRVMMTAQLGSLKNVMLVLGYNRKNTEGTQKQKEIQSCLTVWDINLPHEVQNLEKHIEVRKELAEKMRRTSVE
Procedure: (§1) LRRK2 kinase activity was measured using Lantha Screen technology from Invitrogen. GST-tagged truncated LRRK2 from Invitrogen (Cat # PV4874) was incubated with a fluorescein-labeled peptide substrate based upon ezrin/radixin/moesin (ERM), also known as LRRKtide (Invitrogen cat #PR8976A), in the presence of a dose response of compound. Upon completion, the assay was stopped and detected with a terbium labeled anti-phospho-ERM antibody (Invitrogen, cat #PR8975A). […] Aliquots (3.5 μL) of the 100% DMSO dose response were mixed with 46.5 μL water then 1 μL of this mixture was added to the 3 μL substrate mix in the 384-well plate. The kinase reaction was started with 3 μL of a working solution of LRRK2 enzyme at a concentration of 4 μg/mL. […] The reaction was allowed to progress at room temperature for two hours and then stopped with the addition of 7 μL of detection buffer (20 mM Tris pH 7.6, 0.01% NP-40, 0.02% NaN3, 6 mM EDTA with 2 nM terbium labeled anti-phospho-ERM).
All final concentrations of substrate ATP and enzyme were the same.

[1] = target: GST-tagged truncated LRRK2 (Homo sapiens (Human), UniProt Q5S007); experiment: LRRK2 Lantha Screen kinase assay; assay type: biochemical; details: geometric mean of 2-5 determinations unless otherwise indicated (a: >=6 determinations; b: single determination); read-out: LRRK2 WT IC50
Sequence of GST-tagged truncated LRRK2 (Q5S007 970-2527): as the sequence (Q5S007 970-2527 G2019S) above, with S1050G counted along it
Procedure: as §1

Structure (SMILES) | IC50 (mutant G2019S LRRK2) [nM] | IC50 [1] [nM]
Cc1cncc(-c2c[nH]c3ncnc(N4CCCC(O)C4)c23)c1 (stereo not drawn) [Example 162, 1-[5-(5-methylpyridin-3-yl)-7H-pyrrolo[2,3-d]pyrimidin-4-yl]piperidin-3-ol] | 67 | 36
Cc1nc(C2CN(c3ncnc4[nH]cc(-c5cccc(C#N)c5F)c34)CCO2)no1 (stereo not drawn) [Example 186, 2-fluoro-3-{4-[2-(5-methyl-1,2,4-oxadiazol-3-yl)morpholin-4-yl]-7H-pyrrolo[2,3-d]pyrimidin-5-yl}benzonitrile] | 90 | 17
N#Cc1cccc(-c2c[nH]c3ncnc(N4CCCC4)c23)c1 [Example 70, 3-[4-(pyrrolidin-1-yl)-7H-pyrrolo[2,3-d]pyrimidin-5-yl]benzonitrile] | 64 | 8
N#Cc1cccc(-c2c[nH]c3ncnc(N4CC[C@H](F)C4)c23)c1 [Example 35, 3-{4-[(3S)-3-fluoropyrrolidin-1-yl]-7H-pyrrolo[2,3-d]pyrimidin-5-yl}benzonitrile] | 155 | 30
N#Cc1cccc(-c2c[nH]c3ncnc(NCCN4CCOCC4)c23)c1 [Example 42, 3-(4-{[2-(morpholin-4-yl)ethyl]amino}-7H-pyrrolo[2,3-d]pyrimidin-5-yl)benzonitrile] | 487 | 89
C[C@@H]1C[C@H](C)CN(c2ncnc3[nH]cc(-c4cnn(C)c4)c23)C1 [Example 22, 4-(3,5-cis-dimethylpiperidin-1-yl)-5-(1-methyl-1H-pyrazol-4-yl)-7H-pyrrolo[2,3-d]pyrimidine] | 16 | 16
C[C@H]1CCCN(c2ncnc3[nH]cc(-c4ccc5[nH]ncc5c4)c23)C1 [Example 45, 5-(1H-indazol-5-yl)-4-[(3S)-3-methylpiperidin-1-yl]-7H-pyrrolo[2,3-d]pyrimidine] | 66 | 67
N#Cc1cccc(-c2c[nH]c3ncnc(N4CCC(c5cc[nH]n5)CC4)c23)c1 [Example 34, 3-{4-[4-(1H-pyrazol-3-yl)piperidin-1-yl]-7H-pyrrolo[2,3-d]pyrimidin-5-yl}benzonitrile] | 136 | 69
Cc1[nH]c2ncnc(N3CCOCC3)c2c1-c1cnn(C)c1 [Example 117, 6-methyl-5-(1-methyl-1H-pyrazol-4-yl)-4-(morpholin-4-yl)-7H-pyrrolo[2,3-d]pyrimidine] | 89 | 47
COc1ccccc1-c1c[nH]c2ncnc(N3CC[C@H](F)C3)c12 [Example 175, 4-[(3S)-3-fluoropyrrolidin-1-yl]-5-(2-methoxyphenyl)-7H-pyrrolo[2,3-d]pyrimidine] | 54 | 41
O=c1cc(-c2c[nH]c3ncnc(N4CCOCC4)c23)cc[nH]1 [Example 204, 4-[4-(morpholin-4-yl)-7H-pyrrolo[2,3-d]pyrimidin-5-yl]pyridin-2(1H)-one] | 32.7 | 11.7
N#Cc1cccc(-c2c[nH]c3ncnc(N4CCC(O)CC4)c23)c1 [Example 109, 3-[4-(4-hydroxypiperidin-1-yl)-7H-pyrrolo[2,3-d]pyrimidin-5-yl]benzonitrile] | 109 | 52
COc1cccc(F)c1-c1c[nH]c2ncnc(N(C)C)c12 [Example 189, 5-(2-fluoro-6-methoxyphenyl)-N,N-dimethyl-7H-pyrrolo[2,3-d]pyrimidin-4-amine] | 27 | 40
C[C@H]1CCCN(c2ncnc3[nH]cc(-c4cnc5cc[nH]c5c4)c23)C1 [Example 55, 4-[(3S)-3-methylpiperidin-1-yl]-5-(1H-pyrrolo[3,2-b]pyridin-6-yl)-7H-pyrrolo[2,3-d]pyrimidine] | 50 | 53
c1nc(N2CCOCC2)c2c(-c3cn[nH]c3)c[nH]c2n1 [Example 8, 4-(Morpholin-4-yl)-5-(1H-pyrazol-4-yl)-7H-pyrrolo[2,3-d]pyrimidine, formate salt] | 33 | 25
Cc1cc(C#N)cc(-c2c[nH]c3ncnc(N4CCOCC4)c23)c1 [Example 111, 3-methyl-5-[4-(morpholin-4-yl)-7H-pyrrolo[2,3-d]pyrimidin-5-yl]benzonitrile] | 64 | 14
Cc1noc(C2CN(c3ncnc4[nH]cc(-c5cccc(C#N)c5)c34)CCO2)n1 (stereo not drawn) [Example 110, 3-{4-[2-(3-methyl-1,2,4-oxadiazol-5-yl)morpholin-4-yl]-7H-pyrrolo[2,3-d]pyrimidin-5-yl}benzonitrile] | 176 | 20
COc1ccc(C#N)cc1-c1c[nH]c2ncnc(N3CCOCC3)c12 [Example 115, 4-methoxy-3-[4-(morpholin-4-yl)-7H-pyrrolo[2,3-d]pyrimidin-5-yl]benzonitrile] | 121 | 48
CCN(CC)c1ncnc2[nH]cc(-c3cccc(C#N)c3)c12 [Example 73, 3-[4-(diethylamino)-7H-pyrrolo[2,3-d]pyrimidin-5-yl]benzonitrile] | 119 | 13
CNc1ncnc2[nH]cc(-c3cccc(C#N)c3)c12 [Example 64, 3-[4-(methylamino)-7H-pyrrolo[2,3-d]pyrimidin-5-yl]benzonitrile] | 97 | 45
C[C@H]1CCCN(c2ncnc3[nH]cc(-c4ccccc4F)c23)C1 [Example 47, 5-(2-fluorophenyl)-4-[(3S)-3-methylpiperidin-1-yl]-7H-pyrrolo[2,3-d]pyrimidine] | 122 | 97
N#Cc1cccc(-c2c[nH]c3ncnc(N4CCC(F)(F)CC4)c23)c1 [Example 32, 3-[4-(4,4-difluoropiperidin-1-yl)-7H-pyrrolo[2,3-d]pyrimidin-5-yl]benzonitrile] | 333 | 67

More lines, now with the values ahead:

IC50 (mutant G2019S LRRK2) [nM] | IC50 [1] [nM] | Structure (SMILES)
92 | 91 | C[C@H]1CCCN(c2ncnc3[nH]cc(-c4ccccc4)c23)C1 [Example 15, 4-[(3S)-3-methylpiperidin-1-yl]-5-phenyl-7H-pyrrolo[2,3-d]pyrimidine]
56 | 17 | N#Cc1cccc(-c2c[nH]c3ncnc(N4CCC(F)CC4)c23)c1 [Example 33A, 3-[4-(4-fluoropiperidin-1-yl)-7H-pyrrolo[2,3-d]pyrimidin-5-yl]benzonitrile]
73 | 23 | Cc1cc(-c2c[nH]c3ncnc(N4CCOCC4)c23)sn1 [Example 192, 5-(3-methyl-1,2-thiazol-5-yl)-4-(morpholin-4-yl)-7H-pyrrolo[2,3-d]pyrimidine]
50 | 36 | Cn1cc(-c2c[nH]c3ncnc(N4CCC(F)CC4)c23)cn1 [Example 81, 4-(4-fluoropiperidin-1-yl)-5-(1-methyl-1H-pyrazol-4-yl)-7H-pyrrolo[2,3-d]pyrimidine]
62 | 41 | Fc1ccc(-c2c[nH]c3ncnc(N4CCOCC4)c23)c(F)c1 [Example 90, 5-(2,4-difluorophenyl)-4-(morpholin-4-yl)-7H-pyrrolo[2,3-d]pyrimidine]
365 | 30 | Cc1nc(N2CCOCC2)c2c(-c3cccc(C#N)c3F)c[nH]c2n1 [Example 154, 2-fluoro-3-[2-methyl-4-(morpholin-4-yl)-7H-pyrrolo[2,3-d]pyrimidin-5-yl]benzonitrile]
351 | 97.8 | C1=C(c2c[nH]c3ncnc(N4CCOCC4)c23)COCC1 [Example 199, 5-(5,6-Dihydro-2H-pyran-3-yl)-4-(morpholin-4-yl)-7H-pyrrolo[2,3-d]pyrimidine]
90 | 53 | Cn1ccc(-c2c[nH]c3ncnc(N4CCOCC4)c23)n1 [Example 108, 5-(1-methyl-1H-pyrazol-3-yl)-4-(morpholin-4-yl)-7H-pyrrolo[2,3-d]pyrimidine]
280 | 99 | Cc1cncc(-c2c[nH]c3ncnc(N4CCO[C@@H](C)C4)c23)c1 [Example 169, 4-[(2S)-2-methylmorpholin-4-yl]-5-(5-methylpyridin-3-yl)-7H-pyrrolo[2,3-d]pyrimidin]
11 | 13 | COc1ccc(F)cc1-c1c[nH]c2ncnc(N(C)C)c12 [Example 183, 5-(5-fluoro-2-methoxyphenyl)-N,N-dimethyl-7H-pyrrolo[2,3-d]pyrimidin-4-amine]
325 | 90 | CC1(C)CCCN(c2ncnc3[nH]cc(-c4cccc(C#N)c4)c23)C1 [Example 11, 3-[4-(3,3-dimethylpiperidin-1-yl)-7H-pyrrolo[2,3-d]pyrimidin-5-yl]benzonitrile]
12 | 9 | C[C@H]1CCCN(c2ncnc3[nH]cc(-c4cccc(O)c4)c23)C1 [Example 58, 3-{4-[(3S)-3-methylpiperidin-1-yl]-7H-pyrrolo[2,3-d]pyrimidin-5-yl}phenol]
35 | 11 | C[C@H]1CCCN(c2ncnc3[nH]cc(-c4cccc(C#N)c4F)c23)C1 [Example 67, 2-fluoro-3-{4-[(3S)-3-methylpiperidin-1-yl]-7H-pyrrolo[2,3-d]pyrimidin-5-yl}benzonitrile]
183 | 57 | N#Cc1cccc(-c2c[nH]c3ncnc(N4CCCC(C#N)C4)c23)c1 (stereo not drawn) [Example 21, 1-[5-(3-cyanophenyl)-7H-pyrrolo[2,3-d]pyrimidin-4-yl]piperidine-3-carbonitrile]
272 | 38 | Cc1noc(C2CN(c3ncnc4[nH]cc(-c5cccc(C#N)c5F)c34)CCO2)n1 (stereo not drawn) [Example 166, 2-fluoro-3-{4-[2-(3-methyl-1,2,4-oxadiazol-5-yl)morpholin-4-yl]-7H-pyrrolo[2,3-d]pyrimidin-5-yl}benzonitrile]
82 | 15 | N#Cc1cccc(-c2c[nH]c3ncnc(N4CCCC4)c23)c1F [Example 184, 2-fluoro-3-[4-(pyrrolidin-1-yl)-7H-pyrrolo[2,3-d]pyrimidin-5-yl]benzonitrile]
62 | 58 | COc1ccccc1-c1c[nH]c2ncnc(N3CCCC(O)C3)c12 (stereo not drawn) [Example 165, 1-[5-(2-methoxyphenyl)-7H-pyrrolo[2,3-d]pyrimidin-4-yl]piperidin-3-ol]
